Data reported in patent US7758851B2, “Preservative systems and their use in cosmetic preparations” (Laboratorios Miret, S.A., priority 2001, dated 2010).

What was measured:
[1] = system: Fungi; assay: Antimicrobial Effectiveness Testing (USP 24) of preserved cosmetic formulations, count of fungi; type: cell-based, Aspergillus niger ATCC 16404; conditions: for Fungi, Initial: 0 hours
Source text: (§1) Procedure to Evaluate the Efficacv of the Preservative System
(§2) This assay consists on the contamination of the formulations to be protected with a mixed inoculum of 10^8 cfu/ml concentration, in each of the micro-organisms, and see the variation of the viable cells in time. This mixed inoculum is composed of the following micro-organisms:
(§3) The cosmetic composition which is the subject of the investigation is divided into containers with 50 g of product for each flask. Each container is inoculated with 0.5 ml of the inoculum (10^8 cfu/ml). The target concentration is 10^6 cfu/mL, approximately. All the containers are kept at a temperature between 20-25° C. and are protected against light.
(§4) The level of the microbial contamination is determined at 0 hours and after 7 days, 14 days and 28 days. The number of colonies is determined by dilution in buffer peptone with the appropriate neutraliser agent of the preservative. The culture media used for counting the micro-organisms were: Soya triptone agar (35-37° C., 48 hours) for the determination of bacteria; and Sabouraud agar with chloramphenicol for fungi and yeast (25° C., 3-5 days).
(§5) According to Antimicrobial Effectiveness Testing USP 24th Edition, 1999 (pp. 1809-1811), an antimicrobial preservative is considered to be effective in topically used products made with aqueous bases or vehicles, non-sterile nasal products and emulsions, including those applied to mucous membranes, if: • not less than 2,0 logarithm reduction from the initial calculated bacteria's count at 14 days is reached and no increase from the 14 days' count is detected after 28 days; and • no increase from the initial calculated count of yeast and moulds is observed.

[2] = system: Yeast; assay: Antimicrobial Effectiveness Testing (USP 24) of preserved cosmetic formulations, count of yeast; type: cell-based, Candida albicans ATCC 10231; conditions: for Yeast, Initial: 0 hours
Source text: as §1, §2, §3, §4, §5

[3] = system: Aerobes; assay: Antimicrobial Effectiveness Testing (USP 24) of preserved cosmetic formulations, count of aerobes; type: cell-based; conditions: for Aerobes, Initial: 0 hours
Source text: as §1, §2, §3, §4, §5

[4] = Example 1, oil in water emulsion with non-ionic surfactant
[5] = Example 2, oil in water emulsion with ionic emulsifier
[6] = Example 3, water in oil emulsion with non-ionic emulsifier

Row | Compound | Fungi, Initial [1, 4] | Fungi, 7 days [1, 4] | Fungi, 14 days [1, 4] | Fungi, Initial [1, 5] | Fungi, 7 days [1, 5] | Fungi, 14 days [1, 5] | Fungi, Initial [1, 6] | Fungi, 7 days [1, 6] | Fungi, 14 days [1, 6] | Yeast, Initial [2, 4] | Yeast, 7 days [2, 4] | Yeast, 14 days [2, 4] | Yeast, Initial [2, 5] | Yeast, 7 days [2, 5] | Yeast, 14 days [2, 5] | Yeast, Initial [2, 6] | Yeast, 7 days [2, 6] | Yeast, 14 days [2, 6] | Aerobes, Initial [3, 4] | Aerobes, 7 days [3, 4] | other results
1 | O=[N+]([O-])C(Br)(CO)CO [compound 2] | 1.5 · 10^5 | 1.2 · 10^3 | <9.9 · 10^1 | 1.5 · 10^5 | 8.5 · 10^3 | 1.1 · 10^2 | 3.5 · 10^4 | 8.5 · 10^3 | <9.9 · 10^1 | 3.4 · 10^4 | 1.7 · 10^2 | <9.9 · 10^1 | 2.9 · 10^4 | 8.9 · 10^2 | 4.0 · 10^2 | 5.9 · 10^4 | 8.9 · 10^2 | 4.0 · 10^2 | 1.2 · 10^6 | 2.1 · 10^3 | Aerobes, 14 days [3, 4]: 7.9 · 10^2; Aerobes, Initial [3, 5]: 4.5 · 10^6; Aerobes, 7 days [3, 5]: 2.1 · 10^4; Aerobes, 14 days [3, 5]: 3.8 · 10^3; Aerobes, Initial [3, 6]: 3.3 · 10^6; Aerobes, 7 days [3, 6]: 5.7 · 10^3; Aerobes, 14 days [3, 6]: 2.8 · 10^3
2 | OCCOc1ccccc1 [compound 5] | 1.7 · 10^5 | 1.3 · 10^3 | <9.9 · 10^1 | 1.2 · 10^5 | 5.5 · 10^3 | 3.4 · 10^2 | 4.2 · 10^4 | 5.5 · 10^3 | <9.9 · 10^1 | 3.4 · 10^4 | 1.6 · 10^2 | <9.9 · 10^1 | 2.3 · 10^4 | 5.3 · 10^2 | <9.9 · 10^1 | 5.3 · 10^4 | 5.3 · 10^2 | <9.9 · 10^1 | 2.3 · 10^6 | 1.8 · 10^3 | Aerobes, 14 days [3, 4]: 6.2 · 10^2; Aerobes, Initial [3, 5]: 2.7 · 10^6; Aerobes, 7 days [3, 5]: 1.8 · 10^4; Aerobes, 14 days [3, 5]: 1.8 · 10^3; Aerobes, Initial [3, 6]: 4.8 · 10^6; Aerobes, 7 days [3, 6]: 3.9 · 10^3; Aerobes, 14 days [3, 6]: 1.9 · 10^3
3 | ClC=CC[N+]12CN3CN(CN(C3)C1)C2.[Cl-] [compound 8] | 1.8 · 10^5 | 1.3 · 10^3 | <9.9 · 10^1 | 1.8 · 10^5 | 5.3 · 10^3 | <9.9 · 10^1 | 3.8 · 10^4 | 1.3 · 10^3 | <9.9 · 10^1 | 3.4 · 10^4 | 1.6 · 10^2 | <9.9 · 10^1 | 1.9 · 10^4 | 5.9 · 10^2 | <9.9 · 10^1 | 5.9 · 10^4 | 5.9 · 10^2 | <9.9 · 10^1 | 4.8 · 10^6 | 7.2 · 10^3 | Aerobes, 14 days [3, 4]: 5.3 · 10^2; Aerobes, Initial [3, 5]: 4.6 · 10^6; Aerobes, 7 days [3, 5]: 7.2 · 10^3; Aerobes, 14 days [3, 5]: 9.8 · 10^2; Aerobes, Initial [3, 6]: 4.2 · 10^6; Aerobes, 7 days [3, 6]: 2.7 · 10^3; Aerobes, 14 days [3, 6]: 9.4 · 10^2
4 | CC1(C)C(=O)N(CO)C(=O)N1CO [compound 4] | 1.6 · 10^5 | 3.2 · 10^3 | <9.9 · 10^1 | 1.4 · 10^5 | 6.2 · 10^3 | 2.7 · 10^2 | 6.4 · 10^4 | 6.2 · 10^3 | <9.9 · 10^1 | 5.6 · 10^4 | 3.1 · 10^2 | <9.9 · 10^1 | 1.8 · 10^4 | 2.8 · 10^2 | <9.9 · 10^1 | 4.8 · 10^4 | 2.8 · 10^2 | <9.9 · 10^1 | 1.5 · 10^6 | 4.7 · 10^3 | Aerobes, 14 days [3, 4]: 8.5 · 10^2; Aerobes, Initial [3, 5]: 5.2 · 10^6; Aerobes, 7 days [3, 5]: 4.7 · 10^3; Aerobes, 14 days [3, 5]: 8.7 · 10^2; Aerobes, Initial [3, 6]: 5.6 · 10^6; Aerobes, 7 days [3, 6]: 4.7 · 10^3; Aerobes, 14 days [3, 6]: 4.3 · 10^2
5 | CCCCCCCCCCCC(=O)NC(CCCNC(=N)N)C(=O)OCC.Cl (stereo not drawn) [compound 1] | 1.7 · 10^5 | 8.9 · 10^2 | <9.9 · 10^1 | 1.4 · 10^5 | 7.2 · 10^3 | 2.8 · 10^2 | 1.0 · 10^5 | <9.9 · 10^1 | <9.9 · 10^1 | 5.6 · 10^4 | 9.5 · 10^2 | 4.0 · 10^2 | 3.6 · 10^4 | 1.0 · 10^2 | 1.0 · 10^2 | 7.0 · 10^4 | <9.9 · 10^1 | <9.9 · 10^1 | 1.1 · 10^6 | 3.1 · 10^3 | Aerobes, 14 days [3, 4]: 3.3 · 10^2; Aerobes, Initial [3, 5]: 2.7 · 10^6; Aerobes, 7 days [3, 5]: 1.6 · 10^4; Aerobes, 14 days [3, 5]: 6.5 · 10^2; Aerobes, Initial [3, 6]: 6.2 · 10^6; Aerobes, 7 days [3, 6]: 1.8 · 10^3; Aerobes, 14 days [3, 6]: <9.9 · 10^1
